Results taken from patent US10239870B2, “Dopamine D3 receptor antagonists” (priority 2014, dated 2019).
Structures can show the parent of a compound that is named as a salt.

biological target: T1, hD2 recombinant receptor (human dopamine receptor type 2, long variant, CHO-Gα16-hD2L membranes) (Homo sapiens (Human), UniProt P14416); experiment: not given; details: displacement of 0.08 nM [3H]-Spiperone

D2 pKi | Compound
6.37 | Cn1c(SCCCN2CC[C@]3(CC3c3ccc(C(F)(F)F)cc3F)C2)nnc1-c1cnccn1 (stereo partly drawn) [Example 221, (1S,3S/1R,3R)-1-[2-fluoro-4-(trifluoromethyl)phenyl]-5-(3-{[4-methyl-5-(pyrazin-2-yl)-4H-1,2,4-triazol-3-yl]sulfanyl}propyl)-5-azaspiro[2.4]heptane]

biological target: hD2 recombinant receptor (human dopamine receptor type 2, long variant, CHO-Gα16-hD2L cells) (Homo sapiens (Human), UniProt P14416); experiment: cell-based; details: D2 fpKi, functional pKi; antagonism of dopamine EC80 calcium response (FLIPR)

Compound | Ki
Cn1c(SCCCN2CC[C@]3(CC3c3ccccc3)C2)nnc1C1CCOCC1 (stereo partly drawn) [Example 80, (1R,3S/1S,3R)-5-(3-{[4-methyl-5-(oxan-4-yl)-4H-1,2,4-triazol-3-yl]-sulfanyl}propyl)-1-phenyl-5-azaspiro[2.4]heptane] | > 10 µM
Cn1c(SCCCN2CC[C@]3(C[C@@H]3c3ccccc3)C2)nnc1C1CCOCC1 (single isomer, unassigned) [Example 83, hydrochloride] | > 10 µM
Cn1c(SCCCN2CC[C@]3(C[C@@H]3c3ccc(C(F)(F)F)cc3F)C2)nnc1C1CCOCC1 (single isomer, unassigned) [Example 79, hydrochloride] | 0.363 µM

The next lines start with the values.

Ki | Compound
0.0871 µM | Cn1c(SCCCN2CC[C@]3(CC3c3ccc(C(F)(F)F)cc3F)C2)nnc1-c1cnccn1 (stereo partly drawn) [Example 221, (1S,3S/1R,3R)-1-[2-fluoro-4-(trifluoromethyl)phenyl]-5-(3-{[4-methyl-5-(pyrazin-2-yl)-4H-1,2,4-triazol-3-yl]sulfanyl}propyl)-5-azaspiro[2.4]heptane]
0.0191 µM | Cc1ncoc1-c1nnc(SCCCN2CCC[C@]3(C[C@H]3c3ccc(C(F)(F)F)cc3)C2)n1C (racemic) [Example 310, (1R,3S/1S,3R)-5-(3-{[4-methyl-5-(4-methyl-1,3-oxazol-5-yl)-4H-1,2,4-triazol-3-yl]sulfanyl}propyl)-1-[4-(trifluoromethyl)phenyl]-5-azaspiro[2.5]octane]
2.34 µM | Cn1c(SCCCN2CC[C@]3(C[C@@H]3c3ccc(C(F)(F)F)cc3)C2)nnc1-c1ccno1 [Example 229, (1R,3S/1S,3R)-5-(3-{[4-methyl-5-(1,2-oxazol-5-yl)-4H-1,2,4-triazol-3-yl]sulfanyl}propyl)-1-[4-(trifluoromethyl)phenyl]-5-azaspiro[2.4]heptane]

biological target: T1, hD2 recombinant receptor (human dopamine receptor type 2, long variant, CHO-Gα16-hD2L membranes); experiment: biochemical; details: not given

Compound | Ki
Cc1cccnc1-c1nnc(SCCCN2CC[C@]3(C[C@@H]3c3ccc(C(F)(F)F)cc3)C2)n1C (single isomer, unassigned) [Example 170, dihydrochloride] | 1.41 µM
Cn1c(SCCCN2CC[C@@]3(C[C@H]3c3ccc(C(F)(F)F)cc3F)C2)nnc1-c1ccc(C(N)=O)nc1 (single isomer, unassigned) [Example 186] | 4.9 µM
Cn1c(SCCCN2CC[C@]3(C[C@@H]3c3ccc(C(F)(F)F)cc3)C2)nnc1-c1cccc(C(N)=O)n1 (single isomer, unassigned) [Example 193] | 0.437 µM
Cn1c(SCCCN2CC[C@]3(C[C@@H]3c3ccc(C(F)(F)F)cc3)C2)nnc1-c1ccnc(C#N)c1 (single isomer, unassigned) [Example 178] | 0.794 µM
Cn1c(SCCCN2CC[C@]3(C[C@@H]3c3ccc(C(F)(F)F)cc3)C2)nnc1-c1cncc(C(N)=O)c1 (single isomer, unassigned) [Example 192] | 0.437 µM
Cn1c(SCCCN2CC[C@]3(C[C@@H]3c3ccc(C(F)(F)F)cc3F)C2)nnc1-c1ccc(C(N)=O)cn1 (single isomer, unassigned) [Example 190] | 0.275 µM

Continued, values first:

Ki | Compound
0.468 µM | Cn1c(SCCCN2CC[C@]3(C[C@@H]3c3ccc(C(F)(F)F)cc3)C2)nnc1-c1ccc(CC#N)cc1 (single isomer, unassigned) [Example 286]
3.16 µM | Cn1c(SCCCN2CC[C@]3(C[C@@H]3c3ccc(C(F)(F)F)cc3)C2)nnc1-c1ccc(-c2nnn[nH]2)cc1 (single isomer, unassigned) [Example 273]
0.589 µM | Cn1c(SCCCN2CC[C@]3(C[C@@H]3c3ccc(C(F)(F)F)cc3)C2)nnc1-c1cnc(-c2cccnc2)o1 (single isomer, unassigned) [Example 263]
0.589 µM | Cn1c(SCCCN2CC[C@]3(C[C@@H]3c3ccc(C(F)(F)F)cc3)C2)nnc1-c1ccc(Oc2ccccc2)nc1 (single isomer, unassigned) [Example 265]
0.479 µM | Cc1nc(-c2ccc(-c3nnc(SCCCN4CC[C@]5(C[C@@H]5c5ccc(C(F)(F)F)cc5)C4)n3C)cc2)no1 (single isomer, unassigned) [Example 275]
